Assay: clinical trial: lipoprotein profiles in blood serum of patients treated with a PDE4 inhibitor (ultracentrifugation density separation)
Type: in vivo, human
Description: In a clinical trial, five patients were treated by daily doses of a PDE4 inhibitor. As an exemplifying and representative compound, roflumilast was used as the PDE4 inhibitor. Lipoprotein profiles were measured at start of the therapy (time T0), four weeks after start (T1) and eight weeks after start (T2). Treatment was further monitored thereafter. In an embodiment, a first unit dose ([…]) was administered orally every second day for a period of four weeks, and subsequently the dose was increased to a unit of […] per day until a time of 8 weeks.
For analysing and measuring the lipoprotein profiles and thus the relative concentrations and levels of lipoprotein fractions and the cholesterol and triglyceride amounts per lipoprotein, 10 ml venous blood was drawn at the indicated time Points. Lipoprotein profiles and fractions were determined using density separation by means of ultra-centrifugation and subsequent determination of the lipoprotein components (Baumstark et al., Biochem. Biophys. Acta—Protein Structure and Molecular Enzymology 1037, 48-57 (1990); Frey et al., Eur. J. Appl, Physiol. 60, 441-444 (1990)). The components and parameters determined include cholesterol and triglyceride proportions of HDL and LDL, and of sub-fractions LDL-1 to LDL-6, and HDL-2a-2b and -3. Statistical analysis of the results was carried out by SPSS 23.0.

[1] = five patients, oral roflumilast, T1 (4 weeks) and T2 (8 weeks) compared to T0, blood serum
[2] = five patients, oral roflumilast, blood serum

O=C(Nc1c(Cl)cncc1Cl)c1ccc(OC(F)F)c(OCC2CC2)c1 [roflumilast, 3-cyclopropylmethoxy-4-difluoromethoxy-N-(3,5-dichloropyrid-4-yl)-benzamide]
persistence of the reduction of LDL-C (after 12 weeks (not shown)): maintained over longer time periods | persistence of the reduction of LDL-TG (after 12 weeks (not shown)): maintained over longer time periods | change of LDL-TG [1]: substantially reduced | reduction of LDL-C [1]: approximately 30 mg/dl | change of HDL-C [2]: Slight reductions | change of HDL-TG [2]: Slight reductions

Reference: patent US20180318271A1, “Use of PDE4 Inhibitors for the Prophylaxis and/or Therapy of Dyslipoproteinaemia and Related Disorders” (Albert-Ludwigs-Universität Freiburg, priority 2015, published 2018)
